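Values below derive from 48-hour exposures of cells grown in 96-well plates, with endpoints linearly interpolated between the two concentrations bracketing the appropriate inhibition level. The concentration for 50% growth inhibition is given as GI50. At the TGI there is no net growth.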 Where only a bound is given, the exact number is not on record here.

Among the test systems are IGROV1 ovarian; CCRF-CEM leukemia; SK-MEL-5 melanoma; T-47D breast; HL-60(TB) leukemia; SF-295 CNS; KM12 colon; COLO 205 colon; MDA-MB-435; K-562 leukemia.
Test in all cases: NCI anticancer screen, dose series, 48 h

As to `COc1cc2c3c(c4c5ccccc5[nH]c4c2c(OC)c1OC)C(=O)N(CCN1CCCCC1)C3=O`, the GI50 in the test on IGROV1 ovarian was 0.661 µM; in the test on CCRF-CEM leukemia, 0.855 µM; with SK-MEL-5 melanoma, 1.88 µM; in the test on T-47D breast it was 6.09 µM; in the test with HL-60(TB) leukemia it was 8.15 µM; with SF-295 CNS, 1.25 µM. The GI50 is 1.02 µM with KM12 colon, 0.849 µM with COLO 205 colon, 1.48 µM in the test with MDA-MB-435 and 0.71 µM in the test on K-562 leukemia. Also, the TGI in the test with IGROV1 ovarian was 2.22 µM; with CCRF-CEM leukemia, > 100 µM; with SK-MEL-5 melanoma it was 5.31 µM; in the test on T-47D breast it was > 25.5 µM; in the test on HL-60(TB) leukemia it was > 41 µM; with SF-295 CNS, 3.13 µM. Further, the results for the TGI with KM12 colon, in the test with COLO 205 colon and in the test on MDA-MB-435 were 2.59 µM, 3.25 µM and 3.27 µM, respectively.
As to `CC[C@]12CCCN3CC[C@]4(C(=C(C(=O)OC)C1)Nc1ccccc14)[C@@H]32`, the GI50 in the test with IGROV1 ovarian is 16.8 µM; in the test with CCRF-CEM leukemia, 21.4 µM; in the test on SK-MEL-5 melanoma, 15.4 µM; with T-47D breast, 16.6 µM; in the test on HL-60(TB) leukemia, 21.9 µM; with SF-295 CNS, 17.9 µM. Also, the GI50 with KM12 colon is 16.7 µM; with COLO 205 colon, 16.9 µM; in the test on MDA-MB-435 it was 11.1 µM; in the test with K-562 leukemia it was 11.9 µM. Also, the TGI with IGROV1 ovarian was 45.6 µM; in the test with CCRF-CEM leukemia it was 70 µM; with SK-MEL-5 melanoma, 28.8 µM; in the test with T-47D breast it was 80.5 µM; in the test on HL-60(TB) leukemia, 52 µM; in the test with SF-295 CNS, 36.1 µM. The TGI in the test on KM12 colon stood at 39.1 µM; in the test on COLO 205 colon, 35.7 µM; in the test on MDA-MB-435, 41 µM; with K-562 leukemia, 43.4 µM.
With `CSc1nc2c(c(=O)[nH]1)C(c1ccc(Cl)cc1)C1=C(N2)/C(=C/c2ccc(Cl)cc2)CNC1` (centres undefined), the GI50 in the test on IGROV1 ovarian is 2.56 µM; in the test with CCRF-CEM leukemia it was 2.55 µM; in the test with SK-MEL-5 melanoma it was 3.26 µM; in the test with T-47D breast it was 3.65 µM; in the test with HL-60(TB) leukemia it was 2.44 µM; with SF-295 CNS, 1.96 µM. For the same molecule, the GI50 was 2.06 µM with KM12 colon, 1.91 µM in the test on COLO 205 colon, 1.79 µM in the test on MDA-MB-435 and 3.09 µM in the test with K-562 leukemia. Moreover, the TGI worked out at 7.04 µM in the test with IGROV1 ovarian; 8.99 µM in the test with CCRF-CEM leukemia; 12.4 µM with SK-MEL-5 melanoma; 15.7 µM with T-47D breast; 6.26 µM with HL-60(TB) leukemia; 4.43 µM in the test with SF-295 CNS. For the same molecule, the TGI with KM12 colon worked out at 4.47 µM; in the test with COLO 205 colon it was 3.53 µM; in the test on MDA-MB-435 it was 3.69 µM; with K-562 leukemia, 15.1 µM.
In the case of `COC(=O)C1C2CCCN2OC1(C)CO` (centres undefined), the TGI in the test with IGROV1 ovarian, with CCRF-CEM leukemia, in the test with SK-MEL-5 melanoma, in the test with T-47D breast, with HL-60(TB) leukemia and in the test on SF-295 CNS was > 100 µM throughout. Also, the TGI in the test with KM12 colon, in the test on COLO 205 colon, in the test on MDA-MB-435 and with K-562 leukemia was > 100 µM throughout.
Consider `CC/C=C\C/C=C\C[C@H]1C/C=C2/C(=O)C=C[C@H]2C/C=C\CCC(=O)O1`, for which the GI50 with IGROV1 ovarian was 3.71 µM; with CCRF-CEM leukemia, 2.89 µM; in the test on SK-MEL-5 melanoma it was 2.24 µM; in the test on T-47D breast it was 4.62 µM; in the test on HL-60(TB) leukemia, 3.55 µM; in the test on SF-295 CNS, 3.01 µM. Moreover, the GI50 is 2.52 µM in the test with KM12 colon, 3.11 µM in the test on COLO 205 colon, 3.03 µM with MDA-MB-435 and 2.84 µM with K-562 leukemia. Besides, the TGI in the test with IGROV1 ovarian was 11.8 µM; with CCRF-CEM leukemia, 13 µM; in the test with SK-MEL-5 melanoma, 4.41 µM; in the test with T-47D breast, > 14.3 µM; in the test with HL-60(TB) leukemia it was 12.2 µM; in the test with SF-295 CNS, 9.29 µM. Further, the TGI in the test on KM12 colon is 5.7 µM; with COLO 205 colon, 6.71 µM; in the test with MDA-MB-435 it was 8.91 µM; with K-562 leukemia it was > 14.3 µM.
For `COc1cc(NC(N)=NCCC(C)(C)c2ccc(C(F)(F)F)cc2)ncc1C#N`, the GI50 in the test with IGROV1 ovarian was 1.68 µM; with CCRF-CEM leukemia, 2.06 µM; in the test with SK-MEL-5 melanoma it was 1.58 µM; with T-47D breast, 1.51 µM; in the test on HL-60(TB) leukemia, 0.278 µM; in the test on SF-295 CNS, 1.6 µM. Further, the GI50 with KM12 colon is 1.8 µM; in the test on COLO 205 colon, 1.65 µM; with MDA-MB-435, 1.78 µM; in the test with K-562 leukemia, 1.42 µM. Moreover, the TGI amounted to 3.39 µM in the test on IGROV1 ovarian; 4.93 µM in the test on CCRF-CEM leukemia; 2.94 µM in the test on SK-MEL-5 melanoma; 3.5 µM with T-47D breast; 0.868 µM with HL-60(TB) leukemia; 3.06 µM with SF-295 CNS. Also, the TGI in the test with KM12 colon amounted to 3.38 µM; in the test with COLO 205 colon, 3.21 µM; with MDA-MB-435, 3.25 µM; with K-562 leukemia, 5.02 µM.
For `C/C(=N\NC(=O)c1ccncc1)c1ccc(O)cc1O`, the GI50 with IGROV1 ovarian was 4.89 µM; in the test on CCRF-CEM leukemia it was 2.08 µM; with SK-MEL-5 melanoma, 3.47 µM; in the test with T-47D breast it was 11.4 µM; in the test with HL-60(TB) leukemia it was 3.4 µM; in the test on SF-295 CNS it was 2.39 µM. In addition, the GI50 in the test with KM12 colon was 8.59 µM; in the test on COLO 205 colon, 3.8 µM; with MDA-MB-435, 5.03 µM; with K-562 leukemia, 6.62 µM. The TGI in the test with IGROV1 ovarian is 63.4 µM; in the test on CCRF-CEM leukemia, > 100 µM; with SK-MEL-5 melanoma, 29.6 µM; with T-47D breast, > 100 µM; with HL-60(TB) leukemia, 32.6 µM; with SF-295 CNS, 6.69 µM. In addition, the TGI in the test with KM12 colon, in the test on COLO 205 colon, with MDA-MB-435 and in the test on K-562 leukemia was > 100 µM in each case.
Take `O=C(CN1CCN(c2ccc(Cl)cc2)CC1)N1CCN(c2nnc(-c3ccccc3)c(-c3ccccc3)n2)CC1`: the GI50 was 42.9 µM with IGROV1 ovarian; 21.6 µM in the test with CCRF-CEM leukemia; 2.11 µM in the test on SK-MEL-5 melanoma; 2 µM with T-47D breast; 2.33 µM in the test on HL-60(TB) leukemia; 4.88 µM in the test with SF-295 CNS. The GI50 was 4.04 µM in the test with KM12 colon, 3.47 µM with COLO 205 colon, 7.25 µM with MDA-MB-435 and 5.91 µM with K-562 leukemia. The TGI in the test on IGROV1 ovarian was > 100 µM; in the test with CCRF-CEM leukemia, > 100 µM; in the test with SK-MEL-5 melanoma, 8.31 µM; with T-47D breast it was > 100 µM; with HL-60(TB) leukemia, > 100 µM; with SF-295 CNS it was > 100 µM. Besides, the TGI in the test on KM12 colon, in the test on COLO 205 colon, in the test on MDA-MB-435 and in the test with K-562 leukemia was > 100 µM each time.

Source of the values: PubChem BioAssay (NCI).
